Measured values from paper PMC11339918, “Extracellular Domain of IL-10 Receptor Chain-2 (IL-10R2) and Its Arginine-Containing Peptides Are Susceptible Substrates for Human Prostate Kallikrein-2 (KLK2)” (Biochemistry, 2024).
*: point of attachment. EDDnp = O=[N+]([O-])c1ccc(NCCN*)c([N+](=O)[O-])c1

Columns and labels:
[1] = system: KLK2; assay: Effects of salts and glycosaminoglycans on KLK2 hydrolysis of Abz-KLRSSKQ-EDDnp; assay type: biochemical, human; conditions: 20 mM Tris–HCl, 1 mM EDTA, 5.0 μM Abz-KLRSSKQ-EDDnp, [E] = 1.58 nM, 37 °C, pH 8.0
Method: Bovine lung heparin was prepared as previously reported;[16] dermatan sulfate (12 000 Da) and chondroitin sulfate (25 000 Da) were purchased from Seikagaku Kogyo Co. (Tokyo, Japan), and heparan sulfate (16 000 Da) from the bovine lung was a generous gift from Dr. P. Bianchini (Opocrin Research Laboratories, Modena, Italy).
Figure 1 KLK2 hydrolysis of Abz-KLRSSKQ-EDDnp. (A) Effects of sodium citrate, sodium sulfate, and sodium chloride on the FRET-peptide hydrolysis by KLK2. (B) pH profile for the KLK2 activity. (C) Effects of glycosaminoglycans on KLK2 activity. Assays were carried out in 20 mM Tris–HCl, 1 mM EDTA, and 5.0 μM substrate; [E] = 1.58 nM at 37 °C and pH 8.0 for experiments in (A and C).

[2] = system: KLK3; assay: Hydrolysis by KLK3 of IL-10R2-derived FRET peptides containing F or Y; assay type: biochemical, human; conditions: 2 nM KLK3, 20 mM Tris-HCl, 1 mM EDTA, 1.5 M sodium citrate, pH 7.8, 37 °C
Source text: Obtained from a baculovirus-insect cell line system, purified, and activated as previously reported,[14] MUGB (4-methylumbelliferyl p-guanidino benzoate hydrochloride) was used for the spectrofluorimetric determination of molar concentrations of active KLK2.[15] KLK3 was obtained and assayed as previously reported.[3] […]
FRET Peptides with F FRET Peptides with Y
Abz-MNSVNFKNIL-Q-E DD np Abz-FTAQYLSYR-Q-EDD np
Abz-WESPAFAKGN-Q-EDD np Abz – AQYL SYRIF-Q-EDDnp
Abz-KGNLTFT AQY-Q-EDDnp Abz-SSLSKYGDHT-Q-EDD np
Abz-LSYRIFQDKA-Q-EDD np Abz-KIENEYET WT-Q-EDDnp
Abz-LTEADFSSLS-Q-EDD np Abz-TMKNVYNSWT-Q-ED Dnp
Abz-RVRAEFADEH-Q-EDDnp Abz-NSWTYNVQ-Q-EDDnp
Abz-HSDWVNITFAPVD-Q-EDDnp Abz-NVQYWKNG-Q-EDDnp
Abz-SLHMRFL AP K-Q-EDD np Abz-QITPQYDFEV-Q-EDD np
Abz-GTDEKFQ IT P-Q-EDD np Abz – EPWTTYAVQR-Q-EDD np
Conditions of reactions: 2 nM KLK3, 20 mM Tris -HCl, 1 mM EDTA, 1.5 M sodium citrate, pH 7.8, at 37 °C.
The sequence o f FRET peptide with F or Y in the middle of the sequence can be identiﬁed in the IL-
10R2 ectodomain sequence around F or Y, as shown b e l o w. Cysteines were substituted by Alanine (A)
1 MAWSLGSWLGGCLLVSALGMVPPPENVRMNSVNFKNILQWESPAFAKGNLTFTAQYLSYR.
61 IFQDKCMNTTLTECDFSSLSKYGDHTLRVRAEFADEHSDWVNITFCPVDDTIIGPPGMQV.
121 EVL ADSLHMR FL APKIENEY ET W TMKNVYN SWTYNVQYWK NGTDEKFQIT PQYDFEVLRN.
181 LEPW TTYCVQ VRGF LPDRNK AGEWSEPVCE QTTHDETVPS.

[3] = target: T1, Recombinant KLK2 (Homo sapiens, UniProt P20151); assay: Hydrolysis of FRET peptides by recombinant KLK2 (kinetic parameters); assay type: biochemical; conditions: pH 8.0, 20 mM Tris–HCl, 1 M sodium citrate, 37 °C, KLK2 1.6 nM; three enzymatic reactions, standard errors 5% or less
T1 construct: made in house; host or cells: baculovirus-insect cell line system
T1 sequence (P20151 25-261): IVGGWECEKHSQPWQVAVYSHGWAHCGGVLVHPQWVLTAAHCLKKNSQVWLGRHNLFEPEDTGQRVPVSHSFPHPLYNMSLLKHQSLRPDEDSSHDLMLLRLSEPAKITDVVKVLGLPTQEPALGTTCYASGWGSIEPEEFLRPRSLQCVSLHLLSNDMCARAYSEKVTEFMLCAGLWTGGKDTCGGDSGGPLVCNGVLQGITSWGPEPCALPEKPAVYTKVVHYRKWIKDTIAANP
Source text: Obtained from a baculovirus-insect cell line system, purified, and activated as previously reported,[14] MUGB (4-methylumbelliferyl p-guanidino benzoate hydrochloride) was used for the spectrofluorimetric determination of molar concentrations of active KLK2.[15] KLK3 was obtained and assayed as previously reported.[3]
All of the FRET peptides were obtained by solid-phase peptide synthesis. The purity of FRET peptides to 95% or higher was obtained by semipreparative HPLC on a C18 reversed-phase column and used as protease substrates, as previously reported.[5] Details about the purification and quality of the FRET peptides are provided in the Supporting Information. The enzymatic kinetic measurements were all performed with FRET peptides as previously described.[5]
Five series of FRET peptides derived from Abz-KLRSSK-Q-EDDnp were assayed with KLK2 in 20 mM Tris–HCl, pH 8.0, and 1 M sodium citrate. […] The specificity of subsites S3, S2, S1’, and S2’ was explored by the FRET peptide series Abz-XLRSSKQ-EDDnp (for S3), Abz-KXRSSKQ-EDDnp (for S2), Abz-KLRXSKQ-EDDnp (for S1’), and Abz-KLRSXKQ-EDDnp (for S2’). All of them were hydrolyzed only at R–S or R–X peptide bonds, and the kinetic parameters for their hydrolysis by KLK2 are listed in Table 1.

Compound: O=C([O-])CC(O)(CC(=O)[O-])C(=O)[O-].[Na+].[Na+].[Na+] [sodium citrate]
- effect of salt on KLK2 activity [1]: ten times more efficient activator of KLK2 than sodium sulfate

Compound: Abz – AQYL SYRIF-Q-EDDnp [Abz-AQYLSYRIF-Q-EDDnp, FRET peptide with Y derived from IL-10R2 ectodomain]
- hydrolysis by KLK3 (in words) [2]: resistant to hydrolysis by KLK3

Compound: Abz – EPWTTYAVQR-Q-EDD np [Abz-EPWTTYAVQR-Q-EDDnp, FRET peptide with Y derived from IL-10R2 ectodomain]
- hydrolysis by KLK3 (in words) [2]: resistant to hydrolysis by KLK3

Compound: Abz-FTAQYLSYR-Q-EDD np [Abz-FTAQYLSYR-Q-EDDnp, FRET peptide with Y derived from IL-10R2 ectodomain]
- hydrolysis by KLK3 (in words) [2]: resistant to hydrolysis by KLK3

Compound: Abz-GTDEKFQ IT P-Q-EDD np [Abz-GTDEKFQITP-Q-EDDnp, FRET peptide with F derived from IL-10R2 ectodomain]
- hydrolysis by KLK3 (in words) [2]: resistant to hydrolysis by KLK3

Compound: Abz-HSDWVNITFAPVD-Q-EDDnp [FRET peptide with F derived from IL-10R2 ectodomain]
- hydrolysis by KLK3 (in words) [2]: resistant to hydrolysis by KLK3

Compound: Abz-KGNLTFT AQY-Q-EDDnp [Abz-KGNLTFTAQY-Q-EDDnp, FRET peptide with F derived from IL-10R2 ectodomain]
- hydrolysis by KLK3 (in words) [2]: resistant to hydrolysis by KLK3

Compound: Abz-KIENEYET WT-Q-EDDnp [Abz-KIENEYETWT-Q-EDDnp, FRET peptide with Y derived from IL-10R2 ectodomain]
- hydrolysis by KLK3 (in words) [2]: resistant to hydrolysis by KLK3

Compound: Abz-LSYRIFQDKA-Q-EDD np [Abz-LSYRIFQDKA-Q-EDDnp, FRET peptide with F derived from IL-10R2 ectodomain]
- hydrolysis by KLK3 (in words) [2]: resistant to hydrolysis by KLK3

Compound: Abz-LTEADFSSLS-Q-EDD np [Abz-LTEADFSSLS-Q-EDDnp, FRET peptide with F derived from IL-10R2 ectodomain]
- hydrolysis by KLK3 (in words) [2]: resistant to hydrolysis by KLK3

Compound: Abz-MNSVNFKNIL-Q-E DD np [Abz-MNSVNFKNIL-Q-EDDnp, FRET peptide with F derived from IL-10R2 ectodomain]
- hydrolysis by KLK3 (in words) [2]: resistant to hydrolysis by KLK3

Compound: Abz-NSWTYNVQ-Q-EDDnp [FRET peptide with Y derived from IL-10R2 ectodomain]
- hydrolysis by KLK3 (in words) [2]: resistant to hydrolysis by KLK3

Compound: Abz-NVQYWKNG-Q-EDDnp [FRET peptide with Y derived from IL-10R2 ectodomain]
- hydrolysis by KLK3 (in words) [2]: resistant to hydrolysis by KLK3

Compound: Abz-QITPQYDFEV-Q-EDD np [Abz-QITPQYDFEV-Q-EDDnp, FRET peptide with Y derived from IL-10R2 ectodomain]
- hydrolysis by KLK3 (in words) [2]: resistant to hydrolysis by KLK3

Compound: Abz-RVRAEFADEH-Q-EDDnp [FRET peptide with F derived from IL-10R2 ectodomain]
- hydrolysis by KLK3 (in words) [2]: resistant to hydrolysis by KLK3

Compound: Abz-SLHMRFL AP K-Q-EDD np [Abz-SLHMRFLAPK-Q-EDDnp, FRET peptide with F derived from IL-10R2 ectodomain]
- hydrolysis by KLK3 (in words) [2]: resistant to hydrolysis by KLK3

Compound: Abz-SSLSKYGDHT-Q-EDD np [Abz-SSLSKYGDHT-Q-EDDnp, FRET peptide with Y derived from IL-10R2 ectodomain]
- hydrolysis by KLK3 (in words) [2]: resistant to hydrolysis by KLK3

Compound: Abz-T P QYDFEVLR-Q-EDDnp [Abz-TPQYDFEVLR-Q-EDDnp, FRET peptide with F derived from IL-10R2 ectodomain]
- hydrolysis by KLK3 (in words) [2]: resistant to hydrolysis by KLK3

Compound: Abz-TMKNVYNSWT-Q-ED Dnp [Abz-TMKNVYNSWT-Q-EDDnp, FRET peptide with Y derived from IL-10R2 ectodomain]
- hydrolysis by KLK3 (in words) [2]: resistant to hydrolysis by KLK3

Compound: Abz-VQVRGFLPDR-Q-EDD np [Abz-VQVRGFLPDR-Q-EDDnp, FRET peptide with F derived from IL-10R2 ectodomain]
- hydrolysis by KLK3 (in words) [2]: resistant to hydrolysis by KLK3

Compound: Abz-WESPAFAKGN-Q-EDD np (Abz-WESPAFAKGNQ-EDDnp) [Abz-WESPAFAKGN-Q-EDDnp, FRET peptide with F derived from IL-10R2 ectodomain]
- hydrolysis by KLK3 (in words) [2]: resistant to hydrolysis by KLK3

Compound: Abz-XLRSSKQ-EDDnp, X = H: FRET peptide, S3 series, X = H (N-terminal Abz, C-terminal EDDnp; X = H)
- Km [3]: 4.2 µM
- kcat [3]: 17.2 s^–1
- kcat/Km [3]: 4095 s^–1 mM^–1

Compound: Abz-XLRSSKQ-EDDnp, X = N: FRET peptide, S3 series, X = N (Abz-NLRSSKQ-EDDnp)
- Km [3]: 7.8 µM
- kcat [3]: 26.7 s^–1
- kcat/Km [3]: 3423 s^–1 mM^–1

Compound: Abz-XLRSSKQ-EDDnp, X = Q: FRET peptide, S3 series, X = Q (Abz-QLRSSKQ-EDDnp)
- Km [3]: 5.9 µM
- kcat [3]: 25.7 s^–1
- kcat/Km [3]: 4356 s^–1 mM^–1

Compound: Abz-XLRSSKQ-EDDnp, X = R: FRET peptide, S3 series, X = R (Abz-RLRSSKQ-EDDnp)
- Km [3]: 3.9 µM
- kcat [3]: 22.3 s^–1
- kcat/Km [3]: 5718 s^–1 mM^–1

Compound: Abz-XLRSSKQ-EDDnp, X = S: FRET peptide, S3 series, X = S (Abz-SLRSSKQ-EDDnp)
- Km [3]: 3 µM
- kcat [3]: 29.8 s^–1
- kcat/Km [3]: 9933 s^–1 mM^–1

Compound: Abz-XLRSSKQ-EDDnp, X = V: FRET peptide, S3 series, X = V [Abz-XLRSSKQ-EDDnp, X = V] (Abz-VLRSSKQ-EDDnp)
- Km [3]: 4.7 µM
- kcat [3]: 17.9 s^–1
- kcat/Km [3]: 3808 s^–1 mM^–1

Compound: chondroitin sulfate
- effect of glycosaminoglycan on KLK2 activity [1]: inhibitory

Compound: dermatan sulfate
- effect of glycosaminoglycan on KLK2 activity [1]: activate KLK2 in sub- and micromolar concentrations, respectively

Compound: heparan sulfate
- effect of glycosaminoglycan on KLK2 activity [1]: activate KLK2 in sub- and micromolar concentrations, respectively

Compound: heparin
- effect of glycosaminoglycan on KLK2 activity [1]: almost no effect
